# Experimental data taken from patent US9067914B1, “Tropomyosin-related kinase (TRK) inhibitors” (Genzyme Corporation, priority 2013, dated 2015).
# Counter-ions that a name gives are not always drawn.
# Experiments:
# TrkA = TrkA (Homo sapiens (Human), UniProt P04629); experiment: TrkA activity, off-chip mobility shift assay (LabChip 3000); format: biochemical; settings: 55 μM ATP (ATP Km); n/d = none detected
# Source text: (§1) Reagents and consumables were purchased from Sigma Aldrich, Carna Biosciences, or Caliper Life Sciences. All assay reaction conditions for IC50 determinations were within the linear range with respect to time and enzyme concentration. […] The LabChip 3000 separates and measures the fluorescent signal of fluorescein labeled peptide substrate and fluorescein labeled peptide product present in each well. Results are expressed as percent conversion by measuring peak height for both the substrate and product and dividing the product peak height by the sum of peak heights for both substrate and product.
# TrkB = TrkB (Homo sapiens (Human), UniProt Q16620); experiment: TrkB activity, off-chip mobility shift assay (LabChip 3000); format: biochemical; settings: 70 μM ATP (ATP Km); n/d = none detected
# Source text: as §1
# TrkB, sequence (Q16620 32-822): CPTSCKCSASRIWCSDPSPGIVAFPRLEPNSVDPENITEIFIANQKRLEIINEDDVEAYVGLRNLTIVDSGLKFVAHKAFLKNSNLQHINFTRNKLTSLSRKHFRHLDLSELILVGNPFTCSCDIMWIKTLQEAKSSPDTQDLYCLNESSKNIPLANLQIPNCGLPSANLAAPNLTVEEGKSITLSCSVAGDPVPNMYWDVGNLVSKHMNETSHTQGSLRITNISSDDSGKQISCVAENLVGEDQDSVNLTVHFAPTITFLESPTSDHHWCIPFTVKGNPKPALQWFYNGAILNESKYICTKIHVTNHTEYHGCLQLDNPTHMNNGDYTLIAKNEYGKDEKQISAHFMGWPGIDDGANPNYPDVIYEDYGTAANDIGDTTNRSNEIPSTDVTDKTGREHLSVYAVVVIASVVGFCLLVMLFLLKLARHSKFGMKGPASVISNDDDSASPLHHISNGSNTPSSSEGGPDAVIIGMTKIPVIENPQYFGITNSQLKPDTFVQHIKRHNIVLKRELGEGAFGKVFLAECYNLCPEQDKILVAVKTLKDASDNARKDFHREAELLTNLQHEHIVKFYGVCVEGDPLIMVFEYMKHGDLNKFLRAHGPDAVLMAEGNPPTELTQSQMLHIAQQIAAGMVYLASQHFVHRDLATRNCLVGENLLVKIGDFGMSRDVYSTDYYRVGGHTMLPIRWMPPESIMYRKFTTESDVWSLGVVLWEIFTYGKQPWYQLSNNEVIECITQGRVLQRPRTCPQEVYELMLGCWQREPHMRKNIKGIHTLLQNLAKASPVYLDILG
# TrkA, sequence (P04629 33-796): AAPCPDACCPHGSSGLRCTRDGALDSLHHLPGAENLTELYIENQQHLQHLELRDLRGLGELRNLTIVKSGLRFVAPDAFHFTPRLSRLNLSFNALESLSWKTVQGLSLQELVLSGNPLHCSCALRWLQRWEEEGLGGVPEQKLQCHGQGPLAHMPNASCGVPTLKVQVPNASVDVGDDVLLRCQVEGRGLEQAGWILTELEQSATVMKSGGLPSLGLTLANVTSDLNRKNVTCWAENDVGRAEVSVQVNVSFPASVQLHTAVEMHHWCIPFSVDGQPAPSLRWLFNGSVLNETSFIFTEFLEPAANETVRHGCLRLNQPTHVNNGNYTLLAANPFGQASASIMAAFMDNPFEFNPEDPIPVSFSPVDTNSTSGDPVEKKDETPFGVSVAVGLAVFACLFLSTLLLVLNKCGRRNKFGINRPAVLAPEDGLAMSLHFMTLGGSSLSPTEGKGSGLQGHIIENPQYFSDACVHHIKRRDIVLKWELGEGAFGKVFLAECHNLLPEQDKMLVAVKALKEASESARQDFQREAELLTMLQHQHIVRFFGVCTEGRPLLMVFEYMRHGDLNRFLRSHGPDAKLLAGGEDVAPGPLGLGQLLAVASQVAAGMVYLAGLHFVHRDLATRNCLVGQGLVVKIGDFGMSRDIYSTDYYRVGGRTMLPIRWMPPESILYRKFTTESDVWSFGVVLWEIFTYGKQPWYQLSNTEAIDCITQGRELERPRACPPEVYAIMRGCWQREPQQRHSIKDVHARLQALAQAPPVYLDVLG
IC50 (TrkA),IC50 (TrkB),Compound
3 nM,2 nM,"COc1ccc(COc2ccc(Cn3c(N)nc4cc(-c5ccn(C)n5)cnc43)cc2OC)cn1 [Ex. 3-37-2, 3-(3-methoxy-4-((6-methoxypyridin-3-yl)methoxy)benzyl)-6-(1-methyl-1H-pyrazol-3-yl)-3H-imidazo[4,5-b]pyridin-2-amine]"
51 nM,16 nM,"COc1ccc(COc2ccc(Cn3c(N)nc4cc(-c5cncnc5)cnc43)cc2OC)cn1 [Ex. 3-37-3, 3-(3-methoxy-4-((6-methoxypyridin-3-yl)methoxy)benzyl)-6-(pyrimidin-5-yl)-3H-imidazo[4,5-b]pyridin-2-amine]"
14 nM,13 nM,"COc1ccc(COc2ccc(Cn3c(N)nc4cc(-c5c(C)nn(C)c5C)cnc43)cc2OC)cn1 [Ex. 3-37-4, 3-(3-methoxy-4-((6-methoxypyridin-3-yl)methoxy)benzyl)-6-(1,3,5-trimethyl-1H-pyrazol-4-yl)-3H-imidazo[4,5-b]pyridin-2-amine]"
2 nM,0.7 nM,"COc1ccc(COc2ccc(Cn3c(N)nc4cc(-c5ccncc5)cnc43)cc2OC)cn1 [Ex. 3-37-5, 3-(3-methoxy-4-((6-methoxypyridin-3-yl)methoxy)benzyl)-6-(pyridin-4-yl)-3H-imidazo[4,5-b]pyridin-2-amine]"
5 nM,2 nM,"COc1ccc(COc2ccc(Cn3c(N)nc4cc(-c5cccnc5)cnc43)cc2OC)cn1 [Ex. 3-37-6, 3-(3-methoxy-4-((6-methoxypyridin-3-yl)methoxy)benzyl)-6-(pyridin-3-yl)-3H-imidazo[4,5-b]pyridin-2-amine]"
4 nM,2 nM,"COc1ccc(COc2ccc(Cn3c(N)nc4cc(-c5ccccn5)cnc43)cc2OC)cn1 [Ex. 3-38, 3-(3-methoxy-4-((6-methoxypyridin-3-yl)methoxy)benzyl)-6-(pyridin-2-yl)-3H-imidazo[4,5-b]pyridin-2-amine]"
0.3 nM,0.6 nM,"COc1cc(Cn2c(N)nc3cc(-c4cnn(C)c4)cnc32)ccc1OCc1ccc(C(F)(F)C(F)(F)F)cc1 [Ex. 3-39, 3-(3-methoxy-4-((4-(perfluoroethyl)benzyl)oxy)benzyl)-6-(1-methyl-1H-pyrazol-4-yl)-3H-imidazo[4,5-b]pyridin-2-amine]"
0.2 nM,0.2 nM,"COc1cc(Cn2c(N)nc3cc(-c4cnn(C)c4)cnc32)ccc1OCc1ccc(OC(F)(F)F)cc1 [Ex. 3-40-1, 3-(3-methoxy-4-((4-(trifluoromethoxy)benzyl)oxy)benzyl)-6-(1-methyl-1H-pyrazol-4-yl)-3H-imidazo[4,5-b]pyridin-2-amine]"
0.2 nM,0.6 nM,"COc1cc(Cn2c(N)nc3cc(-c4cnn(C)c4)cnc32)ccc1OCc1ccc(SC(F)(F)F)cc1 [Ex. 3-40-2, 3-(3-methoxy-4-((4-((trifluoromethyl)thio)benzyl)oxy)benzyl)-6-(1-methyl-1H-pyrazol-4-yl)-3H-imidazo[4,5-b]pyridin-2-amine]"
0.2 nM,0.2 nM,"COc1cc(Cn2c(N)nc3cc(-c4cnn(C)c4)cnc32)ccc1OCc1ccc(C(C)C)nc1 [Ex. 3-40-3, 3-(4-((6-isopropylpyridin-3-yl)methoxy)-3-methoxybenzyl)-6-(1-methyl-1H-pyrazol-4-yl)-3H-imidazo[4,5-b]pyridin-2-amine]"
0.2 nM,0.3 nM,"COc1cc(Cn2c(N)nc3cc(-c4cnn(C)c4)cnc32)ccc1OCc1ccc(CC(F)(F)F)cc1 [Ex. 3-40-4, 3-(3-methoxy-4-((4-(2,2,2-trifluoroethyl)benzyl)oxy)benzyl)-6-(1-methyl-1H-pyrazol-4-yl)-3H-imidazo[4,5-b]pyridin-2-amine]"
65 nM,80 nM,"COc1ccc(COc2ccc(Cn3c(N)nc4cc(C#CC5CCCCC5)cnc43)cc2OC)cn1 [Ex. 3-41, 6-(cyclohexylethynyl)-3-(3-methoxy-4-((6-methoxypyridin-3-yl)methoxy)benzyl)-3H-imidazo[4,5-b]pyridin-2-amine]"
7 nM,3 nM,"COc1ccc(COc2ccc(Cn3c(N)nc4cc(C#CCCO)cnc43)cc2OC)cn1 [Ex. 3-42, 4-(2-amino-3-(3-methoxy-4-((6-methoxypyridin-3-yl)methoxy)benzyl)-3H-imidazo[4,5-b]pyridin-6-yl)but-3-yn-1-ol]"
58 nM,51 nM,"COc1ccc(C(Oc2ccc(Cn3c(N)nc4cc(-c5cnn(C)c5)cnc43)cc2OC)C2CC2)cn1 (centres unmarked) [Ex. 3-43, 3-(4-(cyclopropyl(6-methoxypyridin-3-yl)methoxy)-3-methoxybenzyl)-6-(1-methyl-1H-pyrazol-4-yl)-3H-imidazo[4,5-b]pyridin-2-amine]"
39 nM,41 nM,"COc1cc2c(cn1)C(Oc1ccc(Cn3c(N)nc4cc(-c5cnn(C)c5)cnc43)cc1OC)CCC2 (centres unmarked) [Ex. 3-44, 3-(3-methoxy-4-((3-methoxy-5,6,7,8-tetrahydroisoquinolin-8-yl)oxy)benzyl)-6-(1-methyl-1H-pyrazol-4-yl)-3H-imidazo[4,5-b]pyridin-2-amine]"
3 nM,1 nM,"COc1ccc(COc2ccc(C(C)n3c(N)nc4cc(-c5cnn(C)c5)ccc43)cc2OC)cn1 (centres unmarked) [Ex. 3-45, 1-(1-(3-methoxy-4-((6-methoxypyridin-3-yl)methoxy)phenyl)ethyl)-5-(1-methyl-1H-pyrazol-4-yl)-1H-benzo[d]imidazol-2-amine]"
85 nM,37 nM,"COc1ccc(COc2ccc(C(C)n3c(N)nc4cc(-c5ccc(F)cc5)ccc43)cc2OC)cn1 (centres unmarked) [Ex. 3-46, 5-(4-fluorophenyl)-1-(1-(3-methoxy-4-((6-methoxypyridin-3-yl)methoxy)phenyl)ethyl)-1H-benzo[d]imidazol-2-amine]"
1240 nM,427 nM,"COc1cc(C(C)n2cnc3cc(-c4ccc(F)cc4)ccc32)ccc1OCc1ccc(C(F)(F)F)nc1 (centres unmarked) [Ex. 3-47, 5-(4-fluorophenyl)-1-(1-(3-methoxy-4-((6-(trifluoromethyl)pyridin-3-yl)methoxy)phenyl)ethyl)-1H-benzo[d]imidazole]"
102 nM,14 nM,"COc1cc(C(C)n2cnc3cc(-c4cnn(C)c4)ccc32)ccc1OCc1ccc(C(F)(F)F)nc1 (centres unmarked) [Ex. 3-48-1, 1-(1-(3-methoxy-4-((6-(trifluoromethyl)pyridin-3-yl)methoxy)phenyl)ethyl)-5-(1-methyl-1H-pyrazol-4-yl)-1H-benzo[d]imidazole]"
692 nM,127 nM,"COc1cc(C(C)n2cnc3cc(C#CCCO)ccc32)ccc1OCc1ccc(C(F)(F)F)nc1 (centres unmarked) [Ex. 3-48-2, 4-(1-(1-(3-methoxy-4-((6-(trifluoromethyl)pyridin-3-yl)methoxy)phenyl)ethyl)-1H-benzo[d]imidazol-5-yl)but-3-yn-1-ol]"
7 nM,1 nM,"COc1cc(C(C)n2cnc3cc(-c4cnn(C)c4)cnc32)ccc1OCc1ccc(C(F)(F)F)nc1 (centres unmarked) [Ex. 3-52, 3-(1-(3-methoxy-4-((6-(trifluoromethyl)pyridin-3-yl)methoxy)phenyl)ethyl)-6-(1-methyl-1H-pyrazol-4-yl)-3H-imidazo[4,5-b]pyridine]"
0.4 nM,0.6 nM,"COc1cc(C(C)n2c(N)nc3cc(-c4cnn(C)c4)cnc32)ccc1OCc1ccc(C(F)(F)F)nc1 (centres unmarked) [Ex. 3-53, 3-(1-(3-methoxy-4-((6-(trifluoromethyl)pyridin-3-yl)methoxy)phenyl)ethyl)-6-(1-methyl-1H-pyrazol-4-yl)-3H-imidazo[4,5-b]pyridin-2-amine]"
1 nM,1 nM,"COc1cc(C(C)n2c(N)nc3cc(C#CCCO)cnc32)ccc1OCc1ccc(C(F)(F)F)nc1 (centres unmarked) [Ex. 3-55, 4-(2-amino-3-(1-(3-methoxy-4-((6-(trifluoromethyl)pyridin-3-yl)methoxy)phenyl)ethyl)-3H-imidazo[4,5-b]pyridin-6-yl)but-3-yn-1-ol]"
17 nM,4 nM,"COc1cc(Cn2cnc3cc(C#CCCO)cnc32)ccc1OCc1ccc(C(F)F)nc1 [Ex. 3-56, 4-(3-(4-((6-(difluoromethyl)pyridin-3-yl)methoxy)-3-methoxybenzyl)-3H-imidazo[4,5-b]pyridin-6-yl)but-3-yn-1-ol]"
35 nM,13 nM,"COc1ccc(C(C)Oc2ccc(Cn3cnc4cc(-c5cnn(C)c5)cnc43)cc2OC)cn1 (centres unmarked) [Ex. 3-57, 3-(3-methoxy-4-(1-(6-methoxypyridin-3-yl)ethoxy)benzyl)-6-(1-methyl-1H-pyrazol-4-yl)-3H-imidazo[4,5-b]pyridine formate]"
449 nM,219 nM,"COc1ccc(C(C)Oc2ccc(Cn3cnc4cc(-c5ccnn5C)cnc43)cc2OC)cn1 (centres unmarked) [Ex. 3-58-1, 3-(3-methoxy-4-(1-(6-methoxypyridin-3-yl)ethoxy)benzyl)-6-(1-methyl-1H-pyrazol-5-yl)-3H-imidazo[4,5-b]pyridine formate]"
160 nM,61 nM,"COc1ccc(-c2cnc3c(c2)ncn3Cc2ccc(OC(C)c3ccc(OC)nc3)c(OC)c2)cn1 (centres unmarked) [Ex. 3-58-2, 3-(3-methoxy-4-(1-(6-methoxypyridin-3-yl)ethoxy)benzyl)-6-(6-methoxypyridin-3-yl)-3H-imidazo[4,5-b]pyridine formate]"
215 nM,68 nM,"COc1ccc(C(C)Oc2ccc(Cn3cnc4cc(-c5ccnc(F)c5)cnc43)cc2OC)cn1 (centres unmarked) [Ex. 3-58-3, 6-(2-fluoropyridin-4-yl)-3-(3-methoxy-4-(1-(6-methoxypyridin-3-yl)ethoxy)benzyl)-3H-imidazo[4,5-b]pyridine formate]"
